Data reported in patent US12358907B2, “Substituted pyrrolidine amides III” (GRÜNENTHAL GMBH, priority 2019, dated 2025).

These molecules were tested against glucocorticoid receptor (GAL4 DBD-GR) (Homo sapiens (Human), UniProt P04150) (assay: GR cell-based assays (GRE agonist / GRE antagonist), CHO-Gal4/GR luciferase reporter). Conditions: CHO-Gal4/GR reporter cells, agonist mode (EC50) or antagonist mode against beclometasone (IC50), 6 hour incubation.
Excerpt: Potential selective glucocorticoid receptor modulators of this intervention can be tested for modulation of the activity of the glucocorticoid receptor using cell-based assays. These assays involve a Chinese hamster ovary (CHO) cell line which contains fragments of the glucocorticoid receptor as well as fusion proteins. The glucocorticoid receptor fragments used are capable of binding the ligand (e.g. beclomethasone) to identify molecules that compete for binding with glucocorticoid receptor ligands. In more detail, the glucocorticoid receptor ligand binding domain is fused to the DNA binding domain (DBD) of the transcription factor GAL4 (GAL4 DBD-GR) and is stably integrated into a CHO cell line containing a GAL4-UAS-Luciferase reporter construct. […] After cell lysis the luminescence that is produced by luciferase after addition of the substrate is detected and EC50 or IC50 values can be calcuated. Engagement of molecules which induce gene expression via glucocortocoid receptor binding to the DNA leads to expression of the luciferase gene under the control of the fusion protein GAL4 DBD-GR and therefore to a dose-dependent increase of the luminescence signal. Binding of molecules which repress beclomethasone-induced gene expression of the luciferase gene under the control of the fusion protein GAL4 DBD-GR leads to a dose-dependent reduction of the luminescence signal.
The reporter cell line CHO-Gal4/GR consisted of a chinese hamster ovary (CHO) cell line (Leibniz Institute DSMZ—German Collection of Microorganisms and Cell Cultures GmbH: ACC-110) containing a firefly luciferase gene under the control of the GR ligand binding domain fused to the DNA binding domain (DBD) of GAL4 (GAL4 DBD-GR) stably integrated into CHO cells. This cell line was established by stable transfection of CHO cells with a GAL4-UAS-Luciferase reporter construct. In a subsequent step the ligand binding domain of the GR cloned into pIRES2-EGFP-GAL4 containing the DNA binding domain of GAL4 from pFA-AT2 was transfected. This fusion construct activated firefly luciferase expression under the control of a multimerized GAL4 upstream activation sequence (UAS). The signal of the emitted luminescence was recorded by the FLIPR^TETRA. This allowed for specific detection of ligand-induced activation of the GR and therefore for the identification of compounds with agonistic properties. The GAL4/UAS reporter was premixed with a vector that constitutively expressed Renilla luciferase, which served as an internal positive control for transfection efficiency.
The complete culture medium for the assay was: • DMEM F-12 (1:1) MIXTURE (LONZA cat. No: BE04-687F/U1) 500 mL • 5 mL of 100 mM Sodium Pyruvate (LONZA cat. No: BE12-115E) • 25 mL of 7.5% Sodium Bicarbonate (LONZA cat. No BE17-613E) • 6.5 mL of 1 M Hepes (LONZA cat. No: BE17-737E) • 5 mL of 100× Penicillin/Streptomycin (LONZA cat. No DE17-602E) • 50 mL of Fetal Bovine Serum (Euroclone cat. No ECS 0180L) • 0.25 mL of 10 mg/mL Puromycin (InvivoGen cat.: ant-pr-1) • 0.5 mL of 100 mg/mL Zeocin (InvivoGen cat.: ant-zn-1)
Cryo-preserved CHO-Gal4/GR cells were suspended in complete medium and 5000 cells/25 μl/well were seeded into the wells of 384-well polystyrene assay plates (Thermo Scientific, cat. #4332) and cultured at 37° C., 5% CO2 and 95% humidity. After 24 hours growth medium was carefully removed and replaced by 30 μl Opti-MEM (GIBCO, cat. #31985062) as assay buffer. To test the compounds an 8-point half-log compound dilution curve was generated in 100% DMSO starting from a 2 mM stock and compounds were then diluted 1:50 in Opti-MEM. 10 μl of compounds were then added to the wells containing 30 μl Opti-MEM resulting in a final assay concentration range from 10 μM to 0.003 μM in 0.5% DMSO. Compounds were tested at 8 concentrations in quadruplicate data points. […] Finally, cells were lysed with 20 μl of Triton/Luciferin solution and the signal of the emitted luminescence was recorded at the FLIPR^TETRA for 2 minutes. […]

Sequence of glucocorticoid receptor (GAL4 DBD-GR) (P04150 524-758): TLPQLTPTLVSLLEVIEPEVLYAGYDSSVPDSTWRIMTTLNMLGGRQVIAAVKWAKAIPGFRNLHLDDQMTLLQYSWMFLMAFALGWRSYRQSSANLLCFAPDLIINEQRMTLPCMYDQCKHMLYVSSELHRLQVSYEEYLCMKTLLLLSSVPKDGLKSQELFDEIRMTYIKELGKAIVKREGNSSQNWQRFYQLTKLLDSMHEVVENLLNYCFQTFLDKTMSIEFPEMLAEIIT

| IC50 [µM] | SMILES |
| --- | --- |
| < 0.1 | CC1(C)C(=O)N(c2ccc3c(cnn3-c3ccc(F)cc3)c2)[C@H](c2ccccc2)[C@H]1NS(=O)(=O)C1CC1 [Example 35a, N-((2R,3S)-1-(1-(4-fluorophenyl)-1H-indazol-5-yl)-4,4-dimethyl-5-oxo-2-phenylpyrrolidin-3-yl)cyclopropanesulfonamide] |
| 0.1 to 1 | O=C(N[C@H]1C(CCc2ccccc2)C(=O)N(c2ccc3c(cnn3-c3ccc(F)cc3)c2)[C@@H]1c1ccccc1)C1CC1 (single isomer, unassigned) [Example 130] |
| < 0.1 | Cc1nocc1C(=O)N[C@@H]1[C@@H](c2ccccc2)N(c2ccc3c(cnn3-c3ccc(F)cc3)c2)C(=O)C1(C)C [Example 40a, N-((2R,3S)-1-(1-(4-fluorophenyl)-1H-indazol-5-yl)-4,4-dimethyl-5-oxo-2-phenylpyrrolidin-3-yl)-3-methylisoxazole-4-carboxamide] |
| < 0.1 | O=C(N[C@@H]1[C@@H](c2ccccc2)N(c2ccc3c(cnn3-c3ccc(F)cc3)c2)C(=O)C1(F)F)C1CC1 [Example 96, N-((2R,3R)-4,4-difluoro-1-(1-(4-fluorophenyl)-1H-indazol-5-yl)-5-oxo-2-phenylpyrrolidin-3-yl)cyclopropanecarboxamide] |

Same assay, conditions: read-out: IC50 or EC50

| SMILES | IC50 [µM] |
| --- | --- |
| Cc1cccc([C@@H]2[C@@H](NS(C)(=O)=O)[C@H](C)C(=O)N2c2ccc3c(cnn3-c3ccc(F)cc3)c2)c1 (racemic) [Example 62, N-[rac-(2R,3S,4S)-1-[1-(4-Fluorophenyl)-1H-indazol-5-yl]-4-methyl-2-m-tolyl-5-oxo-pyrrolidin-3-yl]-methanesulfonic acid amide] | 0.1 to 1 |
| CC1(C)C(=O)N(c2ccc3c(cnn3-c3ccc(F)cc3)c2)[C@@H](c2ccccc2)[C@@H]1NS(C)(=O)=O [Example 34b, N-((2S,3R)-1-(1-(4-fluorophenyl)-1H-indazol-5-yl)-4,4-dimethyl-5-oxo-2-phenylpyrrolidin-3-yl)methanesulfonamide] | 0.1 to 1 |
| CC1(C)C(=O)N(c2ccc3c(cnn3-c3ccc(F)cc3)c2)[C@@H](c2ccccc2)[C@@H]1NC(=O)c1cnco1 [Example 36b, N-((2S,3R)-1-(1-(4-fluorophenyl)-1H-indazol-5-yl)-4,4-dimethyl-5-oxo-2-phenylpyrrolidin-3-yl)oxazole-5-carboxamide] | 0.1 to 1 |
| O=C(N[C@@H]1[C@@H](c2ccccc2)N(c2ccc3c(cnn3-c3ccc(F)cc3)c2)C(=O)[C@@H]1Cc1nccs1)C1CC1 [Example 150, N-((2R,3S,4R)-1-(1-(4-fluorophenyl)-1H-indazol-5-yl)-5-oxo-2-phenyl-4-(thiazol-2-ylmethyl)pyrrolidin-3-yl)cyclopropanecarboxamide] | 0.1 to 1 |
| Cc1cccc([C@@H]2[C@@H](NC(=O)c3ncccn3)[C@@H](C)C(=O)N2c2ccc3c(cnn3-c3ccc(F)cc3)c2)c1 (racemic) [Example 74, N-[rac-(2R,3S,4R)-1-[1-(4-Fluorophenyl)-1H-indazol-5-yl]-4-methyl-2-m-tolyl-5-oxo-pyrrolidin-3-yl]-pyrimidine-2-carboxylic acid amide] | 0.1 to 1 |
| COc1ccc([C@@H]2[C@@H](NC(=O)c3scnc3C)[C@H](C)C(=O)N2c2ccc3c(cnn3-c3ccc(F)cc3)c2)cc1 (racemic) [Example 82, N-[rac-(2R,3S,4S)-1-[1-(4-Fluorophenyl)-1H-indazol-5-yl]-2-(4-methoxyphenyl)-4-methyl-5-oxo-pyrrolidin-3-yl]-4-methyl-thiazole-5-carboxylic acid amide] | 0.1 to 1 |
| Cc1ncsc1C(=O)N[C@H]1[C@H](C)C(=O)N(c2ccc3c(cnn3-c3ccc(F)cc3)c2)[C@@H]1c1ccccc1 (racemic) [Example 60, N-[rac(2R,3S,4S)-1-[1-(4-Fluorophenyl)-1H-indazol-5-yl]-4-methyl-5-oxo-2-phenyl-pyrrolidin-3-yl]-4-methyl-thiazole-5-carboxylic acid amide] | 0.1 to 1 |
| Cc1cccc([C@@H]2[C@@H](NC(=O)c3scnc3C)[C@H](C)C(=O)N2c2ccc3c(cnn3-c3ccc(F)cc3)c2)c1 (racemic) [Example 67, N-[rac-(2R,3S,4S)-1-[1-(4-Fluorophenyl)-1H-indazol-5-yl]-4-methyl-2-m-tolyl-5-oxo-pyrrolidin-3-yl]-4-methyl-thiazole-5-carboxylic acid amide] | < 0.1 |
| COc1ccc([C@@H]2[C@@H](NC(=O)c3ccn(C)n3)[C@H](C)C(=O)N2c2ccc3c(cnn3-c3ccc(F)cc3)c2)cc1 (racemic) [Example 83, N-[rac-(2R,3S,4S)-1-[1-(4-Fluorophenyl)-1H-indazol-5-yl]-2-(4-methoxyphenyl)-4-methyl-5-oxo-pyrrolidin-3-yl]-1-methyl-1H-pyrazole-3-carboxylic acid amide] | < 0.1 |

Other lines, results leading:

| IC50 [µM] | SMILES |
| --- | --- |
| < 0.1 | CC[C@@H]1C(=O)N(c2ccc3c(cnn3-c3ccc(F)cc3)c2)[C@H](c2ccccc2)[C@H]1NC(=O)C1CC1 (racemic) [Example 126, N-[rac-(2R,3S,4S)-4-Ethyl-1-[1-(4-fluorophenyl)-1H-indazol-5-yl]-5-oxo-2-phenyl-pyrrolidin-3-yl]-cyclopropanecarboxylic acid amide] |
| < 0.1 | O=C(N[C@H]1[C@H](CC2CC2)C(=O)N(c2ccc3c(cnn3-c3ccc(F)cc3)c2)[C@@H]1c1ccccc1)C1CC1 (racemic) [Example 121, N-[rac-(2R,3S,4S)-4-(Cyclopropyl-methyl)-1-[1-(4-fluorophenyl)-1H-indazol-5-yl]-5-oxo-2-phenyl-pyrrolidin-3-yl]-cyclopropanecarboxylic acid amide] |
| < 0.1 | C[C@H]1C(=O)N(c2ccc3c(cnn3-c3ccc(F)cc3)c2)[C@H](c2ccccc2Cl)[C@H]1NC(=O)c1ncccn1 (racemic) [Example 88, N-[rac-(2R,3S,4R)-2-(2-Chlorophenyl)-1-[1-(4-fluorophenyl)-1H-indazol-5-yl]-4-methyl-5-oxo-pyrrolidin-3-yl]-pyrimidine-2-carboxylic acid amide] |
| < 0.1 | C[C@@H]1C(=O)N(c2ccc3c(cnn3-c3ccc(F)cc3)c2)[C@H](c2ccc(Cl)s2)[C@H]1NC(=O)c1ncccn1 (racemic) [Example 109, N-[rac-(2S,3S,4S)-2-(5-Chloro-thiophen-2-yl)-1-[1-(4-fluorophenyl)-1H-indazol-5-yl]-4-methyl-5-oxo-pyrrolidin-3-yl]-pyrimidine-2-carboxylic acid amide] |
| < 0.1 | C[C@@]1(CC2CC2)C(=O)N(c2ccc3c(cnn3-c3ccc(F)cc3)c2)[C@H](c2ccccc2)[C@H]1NC(=O)C1CC1 (racemic) [Example 149, N-(rac-(2R,3S,4S)-4-(cyclopropylmethyl)-1-(1-(4-fluorophenyl)-1H-indazol-5-yl)-4-methyl-5-oxo-2-phenylpyrrolidin-3-yl)cyclopropanecarboxamide] |
| < 0.1 | C[C@@H]1C(=O)N(c2ccc3c(cnn3-c3ccc(F)cc3)c2)[C@H](c2ccccc2)[C@H]1NC(=O)c1ccn(C)n1 (racemic) [Example 64, N-[rac-(2R,3S,4S)-1-[1-(4-Fluorophenyl)-1H-indazol-5-yl]-4-methyl-5-oxo-2-phenyl-pyrrolidin-3-yl]-1-methyl-1H-pyrazole-3-carboxylic acid amide] |
| < 0.1 | C[C@@H]1C(=O)N(c2ccc3c(cnn3-c3ccc(F)cc3)c2)[C@H](c2ccc(Cl)s2)[C@H]1NC(=O)C1CC1 (racemic) [Example 108, N-[rac-(2S,3S,4S)-2-(5-Chloro-thiophen-2-yl)-1-[1-(4-fluorophenyl)-1H-indazol-5-yl]-4-methyl-5-oxo-pyrrolidin-3-yl]-cyclopropanecarboxylic acid amide] |
